According to patent US12227577B2, “Combination of a PD-1 antagonist, an ATR inhibitor and a platinating agent for the treatment of cancer” (Merck Patent GMBH, priority 2018, dated 2025):
“And” between values parts separate entries of the source, which are not always exact repeats. Identical values can stand only once.

Experiments:
[1] = tested on: MC38 colorectal cancer syngeneic model; assay: Experiment 2B: triple combination of Avelumab, Carboplatin and ATRi 1 in subcutaneous MC38 model; type: in vivo, C57BL/6 mice; conditions: Exp. 2B; for Tumor-free mice on day 66: 10 mice per group; for Median survival: Kaplan-Meier, survival data up to day 66, euthanized at tumor burden of 3,000 mm^3; for TGI % (%) / T/C (%) / anti-tumor activity: day 17; for T/C (%): treated vs control group mean volume; for Tumor Size (mm^3) at day 17: day 17 after start of treatment, Mean ± SEM, Avelumab 400 μg i.v. days 3, 6, 9, Carboplatin 60 mg/kg i.p., ATRi 1 60 mg/kg p.o. days 0, 7; for anti-tumor activity: in words
Description: The MC38 tumor cells were maintained in vitro as a monolayer culture in DMEM+2 mM glutamine supplemented with 10% heat inactivated fetal bovine serum, 100 U/ml penicillin and 100 μg/ml streptomycin at 37° C. in an atmosphere of 5% CO2 in air. The tumor cells were routinely subcultured twice weekly by trypsin-EDTA treatment. The cells growing in an exponential growth phase were harvested and counted for tumor inoculation.
Each mouse was inoculated subcutaneously at the right upper flank with MC38 cells (3×10^5) in 0.1 mL of PBS for tumor development. Treatments were started on day 7 after tumor inoculation when the average tumor size reached approximately 80 mm^3. The animals were assigned into groups using an Excel-based randomization software performing stratified randomization based upon their tumor volumes. Each group consisted of 10 tumor-bearing mice. The tested compounds were administered to the mice according to the predetermined regimen shown in the experimental design Table 2 and Table 6, respectively.
(§1) The major endpoint was to see if the tumor growth could be delayed or mice could be cured. Tumor size was measured twice weekly in two dimensions using a caliper, and the volume was expressed in mm^3 using the formula: V=0.5 a×b^2 where a and b are the long and short diameters of the tumor, respectively. The tumor size was then used for calculation of T/C values. The T/C value (in percent) is an indication of antitumor effectiveness; T and C are the mean volumes of the treated and control groups, respectively, on a given day. TGI was calculated for each group using the formula: TGI (%)=[1−(Ti−T0)/(Vi−V0)]×100; Ti is the average tumor volume of a treatment group on a given day, TO is the average tumor volume of the treatment group on the day of treatment start, Vi is the average tumor volume of the vehicle control group on the same day with Ti, and V0 is the average tumor volume of the vehicle group on the day of treatment start. Animals were euthanized as they reached tumor burden of 3,000 mm^3 per IACUC regulations and the time to reach this endpoint was used for Kaplan-Meier survival analysis.
(§2) A one-way ANOVA was performed, and when a significant F-statistics (a ratio of treatment variance to the error variance) was obtained, comparisons between groups were carried out with Games-Howell test. All data were analyzed using SPSS 17.0. p<0.05 was considered to be statistically significant.
(§3) Statistical analysis of difference in survival rate among the groups were conducted on the survival data up to day 66 after the start of treatment. Kaplan-Meier test was performed, all data were analyzed using GraphPad Prism 6.0., comparisons between groups were carried out with Log-rank test, p<0.05 was considered to be statistically significant.
The anti-tumor efficacy of the triple combination avelumab, carboplatin and ATRi 1 was tested according to the above methods and with the experimental design outlined in Table 6.

[2] = tested on: MC38 colorectal cancer syngeneic model; assay: Experiment 2A: triple combination of Avelumab, Cisplatin and ATRi 1 in subcutaneous MC38 model; type: in vivo, C57BL/6 mice; conditions: Exp. 2A; for Tumor-free mice on day 66: 10 mice per group; for Median survival: Kaplan-Meier, survival data up to day 66, euthanized at tumor burden of 3,000 mm^3; for TGI % (%) / T/C (%) / anti-tumor activity: day 17; for T/C (%): treated vs control group mean volume; for anti-tumor activity: in words
Text: The objective of this study was to evaluate the in vivo anti-tumor efficacy of a triple combination treatment comprising avelumab, a platinating agent (cisplatin or carboplatin) and ATRi 1 (Compound 1) in the subcutaneous MC38 colorectal cancer syngeneic model in C57BL/6 mice.
The tumor cells were routinely subcultured twice weekly by trypsin-EDTA treatment.
Treatments were started on day 7 after tumor inoculation when the average tumor size reached approximately 80 mm^3. […] Each group consisted of 10 tumor-bearing mice.
as §1
as §2, with “Statistical analysis of difference in the tumor volume among the groups were conducted on the data obtained at the best therapeutic time point on day 17 after the start of treatment). A one-way” for “A one-way”
as §3
The anti-tumor efficacy of the triple combination avelumab, cisplatin and ATRi 1 was tested according to the above methods and with the experimental design outlined in Table 2.

[3] = 10 mg/kg dose; cited from earlier work
[4] = tested on: MB49 syngeneic tumor model; assay: Triple combination treatment in murine subcutaneous MB49 tumor model; type: in vivo, C57BL/6 female mice; conditions: for Median survival: Kaplan-Meier, sacrificed when tumor volume reached 2000 mm^3; for Tumor Size (mm^3) at day 18: day 18, Mean ± SEM, Avelumab 400 μg i.v. days 3, 6, 9, Carboplatin 60 mg/kg i.p., ATRi 1 60 mg/kg p.o. days 0, 7; for TGI % (%): day 18 after start of treatment, vs control group; for tumor growth inhibition effect: in words, compared to the control group
Description: C57BL/6 female mice at 8-9 weeks of age where subcutaneously injected into the right flank with 0.5×10^6 of viable MB49 tumor cells in 0.1 mL PBS. The animals were randomized and therapy initiated when the tumors reached a volume of around 100 mm^3 (day 0 of treatment). Each group consisted of 10 tumor-bearing mice. The tested compounds were administered to the mice according to the predetermined regimen shown in the experimental design Table 14:
The tumor size was then used for calculation of T/C values.
The body weight was also measured twice a week. Mice were sacrificed when the tumor volume reached 2000 mm^3.
One-way analysis of variance (ANOVA) with Bonferroni's Multiple Comparisons Test, two-way ANOVA, unpaired t-test and Log-rank test from the GraphPad Prism software package were used (Prism 5 for Windows, Version 5.0, GraphPad Software Inc., San Diego, CA). p<0.05 was considered to be statistically significant.

| Molecule | Tumor-free mice on day 66 [1] | Median survival [1] [days] | TGI % (%) [1] [%] | T/C (%) [1] [%] | Tumor Size (mm^3) at day 17 [1] | anti-tumor activity [1] | Tumor-free mice on day 66 [2] | Median survival [2] [days] | TGI % (%) [2] [%] | T/C (%) [2] [%] | anti-tumor activity [2] | receptor occupancy [3] | tolerability [3] | Median survival [4] [days] | Tumor Size (mm^3) at day 18 [4] [mm^3] | TGI % (%) [4] [%] | tumor growth inhibition effect [4] |
| --- | --- | --- | --- | --- | --- | --- | --- | --- | --- | --- | --- | --- | --- | --- | --- | --- | --- |
| Avelumab: fully human monoclonal antibody of the immunoglobulin (Ig) G1 isotype; selectively binds to PD-L1 | 0/10 | 31 | 47.8 | 54.9 | 774 mm^3 and 774 ± 153 mm^3 | minor anti-tumor activity | 0/10 | 26 | 41.8 | 60.2 | minor anti-tumor activity | excellent | well tolerated | 22.5 | 1378 ± 175 | 39.1 | moderate tumor growth inhibition effect |
| N.N.[Cl][Pt][Cl] [Cisplatin, reference compound] | – | – | – | – | – | – | 0/10 | 28 | 38.7 | 63.1 | minor anti-tumor activity | – | – | – | – | – | – |
| CNCc1ccc(-c2cc(-c3nc(-c4ccc(S(=O)(=O)C(C)C)cc4)cnc3N)on2)cc1 [ATRi 1, 3-[3-(4-Methylaminomethyl-phenyl)-isoxazol-5-yl]-5-[4-(propane-2-sulfonyl)-phenyl]-pyrazin-2-ylamine] | 0/10 | 21 | −31.2 | 129.5 | – | minor anti-tumor activity | 0/10 | 24 | 11.6 | 88.9 | minor anti-tumor activity | – | – | 21 | 2087 ± 333 | 7.8 | did not show any significant tumor growth inhibition effect |
| N.N.O=C([O-])C1(C(=O)[O-])CCC1.[Pt+2] [Carboplatin, reference compound] | 0/10 | 28 | 55.5 | 47.6 | 671 mm^3 and 671 ± 160 mm^3 | minor anti-tumor activity | – | – | – | – | – | – | – | 21 | 1814 ± 212 | 19.9 | did not show any significant tumor growth inhibition effect |
